# Test results: ChEMBL document CHEMBL1201862, “PubChem BioAssay data set” (2004)
#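 The compound was tested at five concentrations on cells cultured in 96-well plates, with a 48-hour exposure period. Here, GI50 denotes the concentration required for 50% inhibition of growth.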 Calls of active or inactive are those of the source. Rule as the data show it: active = GI50 up to about 1.1 µM and inactive = higher.
# Assays:
# Experiment in all cases: NCI tumour cell line growth inhibition, 48 h
# CCRF-CEM = system: CCRF-CEM
# COLO 205 = system: COLO 205
# HCC 2998 = system: HCC 2998
# HCT-116 = system: HCT-116
# HCT-15 = system: HCT-15
# HOP-62 = system: HOP-62
# KM12 = system: KM12
# LXFL 529 = system: LXFL 529
# Malme-3M = system: Malme-3M
# NCI-H522 = system: NCI-H522
# OVCAR-4 = system: OVCAR-4
# RXF 393 = system: RXF 393
# SF-295 = system: SF-295
# SK-MEL-28 = system: SK-MEL-28
# SK-MEL-5 = system: SK-MEL-5
# UO-31 = system: UO-31
# SN12C = system: SN12C
# BT-549 = system: BT-549
# DU-145 = system: DU-145
# MCF7 = system: MCF7
SMILES,GI50 (CCRF-CEM),GI50 (COLO 205),GI50 (HCC 2998),GI50 (HCT-116),GI50 (HCT-15) [µM],GI50 (HOP-62),GI50 (KM12),GI50 (LXFL 529),GI50 (Malme-3M),GI50 (NCI-H522),GI50 (OVCAR-4),GI50 (RXF 393),GI50 (SF-295),GI50 (SK-MEL-28),GI50 (SK-MEL-5),GI50 (UO-31),GI50 (SN12C),GI50 (BT-549),GI50 (DU-145),GI50 (MCF7)
COc1ccc(C2Oc3c(cc(O)c(OC)c3C)[C@@H]2C)cc1OC (stereo not given in full),78.5 µM (inactive),> 100 µM (inactive),> 100 µM (inactive),> 100 µM (inactive),> 10,> 100 µM (inactive),> 100 µM (inactive),65.9 µM (inactive),> 100 µM (inactive),34.4 µM (inactive),42.4 µM (inactive),27.7 µM (inactive),> 100 µM (inactive),> 100 µM (inactive),31.6 µM (inactive),66.5 µM (inactive),–,–,–,–
C=CCCCCCCCCC(=O)NS(=O)(=O)c1ccccc1,–,> 100 µM (inactive),> 100 µM (inactive),93.8 µM (inactive),–,> 100 µM (inactive),73.6 µM (inactive),> 100 µM (inactive),> 100 µM (inactive),55.3 µM (inactive),> 100 µM (inactive),> 100 µM (inactive),> 100 µM (inactive),99.3 µM (inactive),–,30.7 µM (inactive),> 100 µM (inactive),–,–,–
COc1cc(-c2cccs2)sc1-c1cccs1,29.3 µM (inactive),13.2 µM (inactive),26.7 µM (inactive),28.6 µM (inactive),4.4,–,27.7 µM (inactive),45 µM (inactive),39 µM (inactive),31 µM (inactive),50.2 µM (inactive),21.8 µM (inactive),23.3 µM (inactive),34 µM (inactive),29.7 µM (inactive),38.2 µM (inactive),81.8 µM (inactive),–,–,–
C=C1CC2CC(O)CC(C1)C2 (stereo not given),–,> 100 µM (inactive),–,> 100 µM (inactive),–,> 100 µM (inactive),> 100 µM (inactive),> 100 µM (inactive),> 100 µM (inactive),> 100 µM (inactive),> 100 µM (inactive),> 100 µM (inactive),> 100 µM (inactive),> 100 µM (inactive),> 100 µM (inactive),> 100 µM (inactive),> 100 µM (inactive),–,–,–
S=c1sc2c(Cl)nc(Cl)nc2n1-c1ccccc1,23.1 µM (inactive),> 100 µM (inactive),52.4 µM (inactive),16.4 µM (inactive),18.1,59.6 µM (inactive),> 100 µM (inactive),17.9 µM (inactive),8.11 µM (inactive),11.5 µM (inactive),41.3 µM (inactive),21.6 µM (inactive),> 100 µM (inactive),15.6 µM (inactive),64.4 µM (inactive),> 100 µM (inactive),46.2 µM (inactive),–,–,–
CC1(CO)OC1COCc1ccccc1 (stereo not given),> 100 µM (inactive),> 100 µM (inactive),–,–,> 100,> 100 µM (inactive),> 100 µM (inactive),> 100 µM (inactive),> 100 µM (inactive),–,–,> 100 µM (inactive),> 100 µM (inactive),–,–,> 100 µM (inactive),> 100 µM (inactive),–,–,–
CC(=O)NNc1nc(C)c(C(=O)NNC(=O)C(=O)Nc2ccc(C)cc2[N+](=O)[O-])s1,46.1 µM (inactive),> 100 µM (inactive),> 100 µM (inactive),> 100 µM (inactive),> 100,> 100 µM (inactive),> 100 µM (inactive),> 100 µM (inactive),> 100 µM (inactive),20.7 µM (inactive),> 100 µM (inactive),> 100 µM (inactive),> 100 µM (inactive),> 100 µM (inactive),> 100 µM (inactive),> 100 µM (inactive),> 100 µM (inactive),–,–,–
CCCCCCCCCCCCCC(=O)OCC1OC(=O)CC1O (stereo not given),42 µM (inactive),> 100 µM (inactive),> 100 µM (inactive),44.2 µM (inactive),25.4,> 100 µM (inactive),81.5 µM (inactive),> 100 µM (inactive),> 100 µM (inactive),–,> 100 µM (inactive),> 100 µM (inactive),35.2 µM (inactive),–,> 100 µM (inactive),20.2 µM (inactive),> 100 µM (inactive),–,–,–
CC(C)c1ccccc1NC(=O)/C(Cl)=C1/Sc2ccccc2NC1=O,24.6 µM (inactive),21.4 µM (inactive),23.6 µM (inactive),28.8 µM (inactive),22.8,30.8 µM (inactive),–,14.5 µM (inactive),20 µM (inactive),17.9 µM (inactive),21.9 µM (inactive),13.3 µM (inactive),–,33.4 µM (inactive),20.6 µM (inactive),32.8 µM (inactive),34 µM (inactive),–,–,–
CCCCC(C(=O)CCC(=O)Nc1ccc(Cl)c(Cl)c1)C(=O)C(C)C (stereo not given),> 100 µM (inactive),> 100 µM (inactive),> 100 µM (inactive),> 100 µM (inactive),> 100,> 100 µM (inactive),84.7 µM (inactive),34.8 µM (inactive),> 100 µM (inactive),> 100 µM (inactive),> 100 µM (inactive),> 100 µM (inactive),85.3 µM (inactive),> 100 µM (inactive),> 100 µM (inactive),> 100 µM (inactive),> 100 µM (inactive),–,–,–
Nc1nc(N)c2ncn(CCCC(c3ccccc3)P(=O)(O)O)c2n1 (stereo not given),> 100 µM (inactive),> 100 µM (inactive),> 100 µM (inactive),> 100 µM (inactive),> 100,> 100 µM (inactive),> 100 µM (inactive),> 100 µM (inactive),> 100 µM (inactive),> 100 µM (inactive),–,–,> 100 µM (inactive),> 100 µM (inactive),> 100 µM (inactive),> 100 µM (inactive),> 100 µM (inactive),–,–,–
CCOC(=O)C1S/C(=N/c2ccc(Cl)cc2C)N=C1C (stereo not given),–,17.1 µM (inactive),20.7 µM (inactive),15.1 µM (inactive),18.5,24.8 µM (inactive),15.5 µM (inactive),18 µM (inactive),20.2 µM (inactive),13.3 µM (inactive),19.9 µM (inactive),15.3 µM (inactive),23.8 µM (inactive),25.2 µM (inactive),16.2 µM (inactive),17.3 µM (inactive),18.5 µM (inactive),–,–,–
CCOC(=O)C1(Cc2ccccc2)CCCCCN1 (stereo not given),–,> 100 µM (inactive),> 100 µM (inactive),–,> 100,> 100 µM (inactive),–,> 100 µM (inactive),50.1 µM (inactive),–,> 100 µM (inactive),> 100 µM (inactive),> 100 µM (inactive),> 100 µM (inactive),–,> 100 µM (inactive),> 100 µM (inactive),–,–,–
O=[N+]([O-])c1nccn1COCCBr,> 100 µM (inactive),> 10 µM (inactive),–,> 100 µM (inactive),> 100,> 100 µM (inactive),> 100 µM (inactive),> 100 µM (inactive),> 100 µM (inactive),> 100 µM (inactive),> 100 µM (inactive),–,> 100 µM (inactive),> 100 µM (inactive),> 100 µM (inactive),> 100 µM (inactive),> 100 µM (inactive),–,–,–
Oc1cc(-c2ccc[nH]2)nc2cc3c(cc12)OCO3,24.1 µM (inactive),18.5 µM (inactive),28.8 µM (inactive),–,23.2,17.6 µM (inactive),–,28.4 µM (inactive),17.1 µM (inactive),–,21 µM (inactive),–,–,65.2 µM (inactive),–,56.5 µM (inactive),49 µM (inactive),–,–,–
C/C(=N\NC(=O)C[n+]1ccccc1)c1sc(-c2nc(C)c(/C(C)=N/NC(=O)C[n+]3ccccc3)s2)nc1C,> 10 µM (inactive),> 100 µM (inactive),> 100 µM (inactive),68.5 µM (inactive),37.7,> 100 µM (inactive),> 100 µM (inactive),95.9 µM (inactive),> 100 µM (inactive),–,–,> 100 µM (inactive),> 100 µM (inactive),> 100 µM (inactive),> 100 µM (inactive),> 100 µM (inactive),> 100 µM (inactive),–,–,–
CC(C)C[C@H]1[C@@H](OCc2ccccc2)COS(=O)(=O)N1[C@H](C)c1ccccc1,8.71 µM (inactive),> 72.6 µM (inactive),> 100 µM (inactive),5.24 µM (inactive),29.1,> 84.1 µM (inactive),47.1 µM (inactive),–,> 27.2 µM (inactive),7.83 µM (inactive),> 100 µM (inactive),29.1 µM (inactive),9.12 µM (inactive),> 100 µM (inactive),5.55 µM (inactive),9.95 µM (inactive),75.3 µM (inactive),> 58.2 µM (inactive),37.9 µM (inactive),21.7 µM (inactive)
CCOC(=O)C1=C(C)N(NC(N)=O)C2(N)N(NC(N)=O)C(C)=C(C(=O)OCC)C12C(=O)OCC (stereo not given),–,–,> 100 µM (inactive),> 100 µM (inactive),> 100,> 100 µM (inactive),> 100 µM (inactive),> 100 µM (inactive),> 100 µM (inactive),> 100 µM (inactive),> 100 µM (inactive),> 100 µM (inactive),> 100 µM (inactive),> 100 µM (inactive),> 100 µM (inactive),> 100 µM (inactive),> 100 µM (inactive),–,–,–
O=C(Nc1nnn[nH]1)c1nc(O)cc(-c2ccccc2)n1,> 100 µM (inactive),> 100 µM (inactive),> 100 µM (inactive),> 100 µM (inactive),–,> 100 µM (inactive),> 100 µM (inactive),> 100 µM (inactive),> 100 µM (inactive),> 100 µM (inactive),> 100 µM (inactive),–,> 100 µM (inactive),> 100 µM (inactive),> 100 µM (inactive),> 100 µM (inactive),> 100 µM (inactive),–,–,–
